Laboratory results taken from US7230033B2, “Pest control compositions and methods for their use” (United States of America as represented by the Secretary of …, priority 2000, dated 2007).

Experiments:
[1] = test system: ticks, fleas, and mosquitoes; assay: Pesticidal activity against all three arthropods, general statements (Examples 9, 17); assay type: in vivo; details: 24 hours exposure; initial screenings
Method: Concentrations of the compounds were prepared by 2-fold serial dilutions of a 0.5% (wt:vol) solution of the extracts in acetone (see, e.g., Panella et al., J. Med. Entomol., 42(3):352-358, 2005). The approximate toxicity of individual compounds and compounds in combination was determined with a total of 8 doses ranging from 0.002% to 0.25%. […] A control treated with acetone only was run with each series. Tick and flea susceptibility was evaluated using a modification of the disposable pipette method of Barnard et al. (J. Econ. Entomol., 74:466–69, 1981) and Maupin and Piesman (J. Med. Entomol., 31:319–321, 1994).
Briefly, groups of 10 nymphal I. scapularis and X. cheopis fleas were used in all tests (more than a total of 5,240 nymphs and 4,860 fleas were exposed to the compounds). The inner surface of 2-dram friction cap vials were treated with the compound/acetone solution, or acetone only as a control, and left to air-dry overnight (see also, Panella et al., J. Med. Entomol., 42(3):352-358, 2005. Three to 4 holes were made in the plastic cap to allow for air exchange. Nymphal ticks and adult fleas were then placed directly into the vials using forceps. Vials containing ticks or fleas were placed in desiccators for 24 h at 21° C. and 90% RH. Morbidity and mortality was recorded at 1, 2, 4, 8, and 24 h after initial exposure.
Adult mosquitoes were tested using the bottle bioassay method of Brogden and McAllister (J. Am. Mosq. Control Assoc., 14:159–64, 1998) with minor modifications. Natural product extracts were two-fold serially diluted for a total of 8 concentrations ranging from 0.002% to 0.25% in 1.5 ml of acetone. Individual dilutions were added to 250 ml Wheaton glass bottles and capped. Bottles were manipulated to evenly coat all inner surfaces. The caps were removed and bottles were allowed to air-dry overnight. […] Morbidity and mortality were recorded at 15, 30, 45, and 60 min and 24 hour intervals. […] The dose-mortality data was evaluated with probit analysis, using the LdP Line software, to determine LC50 and LC90 values.

[2] = test system: nymphal Ixodes scapularis; assay: Treated-vial biocidal screening with 2% acetone solutions (Example 2), tick nymphs; assay type: in vivo; details: treated vials sat 72 h; arthropods added for the final 24 h
Method: (§1) Samples of the compounds listed below were obtained as described in Example 1, and screened for biocidal activities against nymphal Ixodes scapularis. In this example, 2% acetone solutions (wt/vol) of the compounds were applied to inner surfaces of 2-dram friction cap vials. Vials and caps were treated then allowed to dry for a minimum of 4 hours before placing 10 nymphs in each container. These same vials were used to challenge additional nymphs and adult I. scapularis ticks and adult Xenopsylla cheopis fleas through five weeks to observe any possible residual activity.
(§2) Numbers in parentheses refer to length of treatment in terms of hours (h) or weeks (wk). Data is presented in terms of number killed/number tested. For test periods longer than 24 hours, the treated vials were allowed to sit for the stated period after drying (72 h, 4 wk, or 5 wk) and each group of arthropods was added to the vials for the final 24 h of the test period.

[3] = test system: adult I. scapularis ticks; assay: Treated-vial biocidal screening with 2% acetone solutions (Example 2), adult ticks, residual; assay type: in vivo, Ixodes scapularis; details: treated vials sat 4 wk; arthropods added for the final 24 h
Method: as §1, §2

[4] = test system: adult Xenopsylla cheopis fleas; assay: Treated-vial biocidal screening with 2% acetone solutions (Example 2), adult fleas, residual; assay type: in vivo; details: treated vials sat 5 wk; arthropods added for the final 24 h
Method: as §1, §2

[5] = test system: I. scapularis nymphs; assay: Tick bioassay, treated 2-dram vials, probit analysis; assay type: in vivo, Ixodes scapularis; details: 24 h exposure; probit
Source text: A control treated with acetone only was run with each series.
For each time point, if ticks and fleas were incapable of movement, maintaining normal posture, leg coordination, ability to right themselves, or any signs of life, they were considered moribund or dead.

[6] = test system: X. cheopis adults; assay: Flea bioassay, treated 2-dram vials, probit analysis; assay type: in vivo, Xenopsylla cheopis; details: 24 h exposure; probit
Method: Med. […] A control treated with acetone only was run with each series. Tick and flea susceptibility was evaluated using a modification of the disposable pipette method of Barnard et al. (J. Econ. Entomol., 74:466-69, 1981) and Maupin and […]. Med. […] The inner surface of 2-dram friction cap vials were treated with the compound/acetone solution, or acetone only as a control, and left to air-dry overnight (see also, […] et al., J. Med. […] Three to 4 holes were made in the plastic cap to allow for air exchange. Nymphal ticks and adult fleas were then placed directly into the vials using forceps. […] For each time point, if ticks and fleas were incapable of movement, maintaining normal posture, leg coordination, ability to right themselves, or any signs of life, they were considered moribund or dead.

[7] = test system: Ae. aegypti adults; assay: Adult mosquito bottle bioassay; assay type: in vivo, Aedes aegypti; details: 24 h exposure
Method: Adult mosquitoes were tested using the bottle bioassay method of Brogden and McAllister (J. Am. Mosq. Control Assoc., 14:159–64, 1998) with minor modifications. Natural product extracts were two-fold serially diluted for a total of 8 concentrations ranging from 0.002% to 0.25% in 1.5 ml of acetone. Individual dilutions were added to 250 ml Wheaton glass bottles and capped. Bottles were manipulated to evenly coat all inner surfaces. The caps were removed and bottles were allowed to air-dry overnight. Once bottles were completely dry, 10–50 (in some tests 25–50) adult mosquitoes were aspirated into the bottles. Mosquitoes were held in the bottles for 24 h at 23° C. and 85% RH. Morbidity and mortality were recorded at 15, 30, 45, and 60 min and 24 hour intervals. One bottle for each replicate was treated with acetone only and served as a control. The dose-mortality data was evaluated with probit analysis, using the LdP Line software, to determine LC50 and LC90 values.
Carvacrol was combined with compound 7, 9, or 10 at a 1:1 ratio (7.5 μl of carvacrol:7.5 μl of compound 7, 9, or 10 was added to 2,985 μl of acetone for a 0.5% solution, from which serial dilutions were made), and tested as previously described against nymphal ticks and adult and larval mosquitoes.

[8] = NE = not effective at concentrations tested

CC1=CCC2C(C1)C2(C)C (centres unmarked) [Compound 1, 3-Carene]
pesticidal activity [1]: no pesticidal activity

COc1cc(C(C)C)ccc1C [Compound 3, Methyl carvacrol]
pesticidal activity [1]: no pesticidal activity

CC1=CCC(O)(C(C)C)CC1 (centres unmarked) [Compound 2, Terpinen-4-ol]
pesticidal activity [1]: no pesticidal activity

C=C(C)[C@@H]1CCC2=CCC[C@@H](C)[C@]2(C)C1 [Compound 5, Valencene]
I. scapularis nymphs (72 h), number killed/number tested [2]: 0/5 | I. scapularis adults (4 wk), number killed/number tested [3]: 0/5 | X. cheopis adults (5 wk), number killed/number tested [4]: 0/5 | Slope [5]: 0.684 | Slope [6]: 6.925 | LC50 [7, 8]: 0.015 percent concentration, wt:vol | LC90 [7, 8]: 0.037 percent concentration, wt:vol | Slope ([7]; probit): 3.199
